Reference: ChEMBL document CHEMBL5113400, “Design, synthesis, and biological evaluation of trizole-based heteroaromatic derivatives as Bcr-Abl kinase inhibitors” (Eur J Med Chem, 2022)
Active and inactive are the calls of the source. The rule behind the calls is not given here.

Legend:
K562 [1] = assay: Induction of apoptosis in human K562 cells assessed as early apoptotic cells at 5 uM incubated for 48 hrs by Annexin V-FITC/PI staining based flow cytometry analysis (Rvb= 4.35%); assay type: functional
[2] = target: Dual specificity tyrosine-phosphorylation-regulated kinase 1B (Homo sapiens) (UniProt Q9Y463); assay: Inhibition of recombinant human DYRK1B at 10 uM for 10 mins followed by substrate addition in presence of ATP and measured after 60 mins by HTRF assay; conditions: time 70.0 min
K562 [3] = assay: Induction of apoptosis in human K562 cells assessed as viable cells at 1 uM incubated for 48 hrs by Annexin V-FITC/PI staining based flow cytometry analysis (Rvb=80.89%); assay type: functional; conditions: read-out: Activity
[4] = target: Vascular endothelial growth factor receptor 2 (Homo sapiens) (UniProt P35968); assay: Inhibition of recombinant human KDR at 10 uM for 10 mins followed by substrate addition in presence of ATP and measured after 100 mins by ADP-Glo kinase assay; conditions: time 110.0 min
HEK293 = assay: Cytotoxicity against human HEK293 cells assessed as inhibition of cell growth upto 100 uM incubated for 48 hrs by MTT assay; assay type: toxicity, cell-based; conditions: hek293, 48 h
K562 [5] = assay: Induction of cell cycle arrest in human K562 cells assessed as reduction in G0/G1 phase at 1 to 10 uM incubated for 48 hrs by PI staining based flow cytometry; assay type: functional; conditions: dose 1-10 µM
EA.hy 926 = assay: Cytotoxicity against human EA.hy 926 cells assessed as inhibition of cell growth upto 100 uM incubated for 48 hrs by MTT assay; assay type: toxicity, cell-based; conditions: ea.hy 926, 48 h
[6] = target: Tyrosine-protein kinase receptor UFO (Homo sapiens) (UniProt P30530); assay: Inhibition of recombinant human AXL at 10 uM for 10 mins followed by substrate addition in presence of ATP and measured after 60 mins by HTRF assay; conditions: time 70.0 min
Bcr/Abl fusion protein [7] = target: Bcr/Abl fusion protein (Homo sapiens, UniProt P00519); assay: Inhibition of wild type Bcr-Abl (unknown origin) incubated for 1 hr in presence of ATP by ADP-Glo kinase assay; assay type: protein assay
[8] = target: Dual specificity tyrosine-phosphorylation-regulated kinase 1B (Homo sapiens) (UniProt Q9Y463); assay: Inhibition of recombinant human DYRK1B at 10 uM for 10 mins followed by substrate addition in presence of ATP and measured after 100 mins by ADP-Glo kinase assay; conditions: time 110.0 min
K562 [9] = assay: Induction of apoptosis in human K562 cells assessed as late apoptotic cells at 1 uM incubated for 48 hrs by Annexin V-FITC/PI staining based flow cytometry analysis (Rvb= 14.66%); assay type: functional
[10] = target: Bcr/Abl fusion protein (Homo sapiens) (UniProt P00519+P11274); assay: Inhibition of Bcr-Abl phosphorylation at Tyr245 residue in human K562 cells expressing wild type Bcr-Abl at 0.1 to 15 uM measured after 48 hrs by Western blot analysis; assay type: cell-based; conditions: dose 0.1-15 µM, DDE = dose-dependent effect
BaF3 = assay: Antiproliferative activity against mouse BaF3 cells assessed as inhibition of cell growth incubated for 72 hrs by CellTiter-Glo luminescent assay; assay type: functional, cell-based; conditions: BaF3, 72 h
Bcr/Abl fusion protein [11] = target: Bcr/Abl fusion protein (Homo sapiens, UniProt P00519, T315I); assay: Inhibition of Bcr-Abl T315I mutant (unknown origin) incubated for 1 hr in presence of ATP by ADP-Glo kinase assay; assay type: protein assay
[12] = target: T1, Tyrosine-protein kinase ITK/TSK (Homo sapiens) (UniProt Q08881); assay: Inhibition of recombinant human ITK at 10 uM for 10 mins followed by substrate addition in presence of ATP and measured after 60 mins by HTRF assay; conditions: time 70.0 min
T1 sequence (whole entry): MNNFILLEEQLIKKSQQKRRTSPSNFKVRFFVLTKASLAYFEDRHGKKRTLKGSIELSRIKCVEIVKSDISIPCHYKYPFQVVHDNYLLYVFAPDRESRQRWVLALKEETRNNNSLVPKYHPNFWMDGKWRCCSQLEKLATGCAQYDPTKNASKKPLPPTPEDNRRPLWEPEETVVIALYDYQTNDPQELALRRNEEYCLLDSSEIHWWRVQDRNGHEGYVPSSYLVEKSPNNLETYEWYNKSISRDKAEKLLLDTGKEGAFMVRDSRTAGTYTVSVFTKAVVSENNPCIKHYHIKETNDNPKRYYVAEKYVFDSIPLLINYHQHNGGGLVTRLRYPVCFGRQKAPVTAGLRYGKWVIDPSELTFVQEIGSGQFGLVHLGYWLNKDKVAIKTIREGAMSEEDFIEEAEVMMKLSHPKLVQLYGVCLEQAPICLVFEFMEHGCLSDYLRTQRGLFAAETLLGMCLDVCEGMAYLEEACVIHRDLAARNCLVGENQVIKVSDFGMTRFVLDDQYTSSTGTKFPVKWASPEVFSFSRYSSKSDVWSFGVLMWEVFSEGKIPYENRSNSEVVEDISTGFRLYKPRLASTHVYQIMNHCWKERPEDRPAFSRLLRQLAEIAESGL

[13] = target: T2, Signal transducer and activator of transcription 5A (Homo sapiens) (UniProt P42229); assay: Inhibition of STAT5 phosphorylation at Tyr694 residue in human K562 cells expressing wild type Bcr-Abl at 0.1 to 15 uM measured after 48 hrs by Western blot analysis; assay type: cell-based; conditions: dose 0.1-15 µM, DDE = dose-dependent effect
T2 sequence (whole entry): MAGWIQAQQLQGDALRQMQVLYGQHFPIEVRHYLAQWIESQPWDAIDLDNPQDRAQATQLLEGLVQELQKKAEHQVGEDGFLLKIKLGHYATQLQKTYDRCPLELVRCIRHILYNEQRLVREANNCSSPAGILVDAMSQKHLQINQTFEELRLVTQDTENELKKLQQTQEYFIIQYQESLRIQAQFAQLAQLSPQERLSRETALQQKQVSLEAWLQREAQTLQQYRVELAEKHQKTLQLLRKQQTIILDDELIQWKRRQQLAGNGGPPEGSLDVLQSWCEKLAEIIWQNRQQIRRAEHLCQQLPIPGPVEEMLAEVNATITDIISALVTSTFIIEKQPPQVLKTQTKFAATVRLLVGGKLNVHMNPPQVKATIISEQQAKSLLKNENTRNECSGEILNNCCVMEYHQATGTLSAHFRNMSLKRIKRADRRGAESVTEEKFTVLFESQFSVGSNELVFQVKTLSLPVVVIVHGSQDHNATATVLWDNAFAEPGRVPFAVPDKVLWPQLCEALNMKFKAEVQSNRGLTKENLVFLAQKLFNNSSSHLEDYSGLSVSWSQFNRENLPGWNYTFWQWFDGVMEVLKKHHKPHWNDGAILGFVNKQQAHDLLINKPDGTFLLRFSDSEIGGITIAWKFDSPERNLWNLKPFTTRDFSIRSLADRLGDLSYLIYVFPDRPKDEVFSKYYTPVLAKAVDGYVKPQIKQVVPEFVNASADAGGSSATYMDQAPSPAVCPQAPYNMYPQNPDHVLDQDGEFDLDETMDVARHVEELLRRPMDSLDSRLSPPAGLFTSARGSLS

[14] = target: Dual specificity protein kinase CLK1 (Homo sapiens) (UniProt P49759); assay: Inhibition of recombinant human CLK1 at 10 uM for 10 mins followed by substrate addition in presence of ATP and measured after 60 mins by HTRF assay; conditions: time 70.0 min
Dual specificity protein kinase CLK1 (Homo sapiens), sequence (P49759 whole entry, looked up): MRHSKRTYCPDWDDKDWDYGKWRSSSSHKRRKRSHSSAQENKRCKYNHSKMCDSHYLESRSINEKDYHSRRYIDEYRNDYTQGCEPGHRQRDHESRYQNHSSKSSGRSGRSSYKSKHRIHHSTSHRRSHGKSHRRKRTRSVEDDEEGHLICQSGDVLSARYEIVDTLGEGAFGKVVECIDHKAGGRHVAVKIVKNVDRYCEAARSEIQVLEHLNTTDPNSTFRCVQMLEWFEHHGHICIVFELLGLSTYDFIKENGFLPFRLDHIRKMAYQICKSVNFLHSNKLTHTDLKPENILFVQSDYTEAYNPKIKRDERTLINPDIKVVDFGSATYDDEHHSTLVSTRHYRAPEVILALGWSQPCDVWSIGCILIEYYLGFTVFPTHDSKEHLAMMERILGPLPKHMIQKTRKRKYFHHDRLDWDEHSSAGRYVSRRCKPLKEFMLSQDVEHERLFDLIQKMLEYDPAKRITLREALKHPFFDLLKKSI

Dual specificity tyrosine-phosphorylation-regulated kinase 1B (Homo sapiens), sequence (Q9Y463 whole entry, looked up): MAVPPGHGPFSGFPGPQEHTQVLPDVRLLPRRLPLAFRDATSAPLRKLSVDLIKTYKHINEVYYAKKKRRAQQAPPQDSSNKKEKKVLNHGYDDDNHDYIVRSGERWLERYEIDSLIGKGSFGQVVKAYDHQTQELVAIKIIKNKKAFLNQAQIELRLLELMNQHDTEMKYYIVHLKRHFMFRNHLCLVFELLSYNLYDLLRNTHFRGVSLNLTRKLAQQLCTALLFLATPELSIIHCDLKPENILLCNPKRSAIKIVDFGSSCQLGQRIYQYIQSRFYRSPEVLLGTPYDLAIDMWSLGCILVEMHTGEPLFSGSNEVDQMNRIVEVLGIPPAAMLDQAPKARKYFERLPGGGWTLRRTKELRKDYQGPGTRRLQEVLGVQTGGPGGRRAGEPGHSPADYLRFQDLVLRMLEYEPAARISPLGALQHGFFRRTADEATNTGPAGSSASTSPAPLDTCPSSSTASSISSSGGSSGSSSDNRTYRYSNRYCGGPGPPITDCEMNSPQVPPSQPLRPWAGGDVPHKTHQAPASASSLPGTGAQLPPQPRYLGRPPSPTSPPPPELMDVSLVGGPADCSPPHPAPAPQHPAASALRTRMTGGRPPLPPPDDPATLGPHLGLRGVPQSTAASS
Tyrosine-protein kinase receptor UFO (Homo sapiens), sequence (P30530 whole entry, the tested form may be a part): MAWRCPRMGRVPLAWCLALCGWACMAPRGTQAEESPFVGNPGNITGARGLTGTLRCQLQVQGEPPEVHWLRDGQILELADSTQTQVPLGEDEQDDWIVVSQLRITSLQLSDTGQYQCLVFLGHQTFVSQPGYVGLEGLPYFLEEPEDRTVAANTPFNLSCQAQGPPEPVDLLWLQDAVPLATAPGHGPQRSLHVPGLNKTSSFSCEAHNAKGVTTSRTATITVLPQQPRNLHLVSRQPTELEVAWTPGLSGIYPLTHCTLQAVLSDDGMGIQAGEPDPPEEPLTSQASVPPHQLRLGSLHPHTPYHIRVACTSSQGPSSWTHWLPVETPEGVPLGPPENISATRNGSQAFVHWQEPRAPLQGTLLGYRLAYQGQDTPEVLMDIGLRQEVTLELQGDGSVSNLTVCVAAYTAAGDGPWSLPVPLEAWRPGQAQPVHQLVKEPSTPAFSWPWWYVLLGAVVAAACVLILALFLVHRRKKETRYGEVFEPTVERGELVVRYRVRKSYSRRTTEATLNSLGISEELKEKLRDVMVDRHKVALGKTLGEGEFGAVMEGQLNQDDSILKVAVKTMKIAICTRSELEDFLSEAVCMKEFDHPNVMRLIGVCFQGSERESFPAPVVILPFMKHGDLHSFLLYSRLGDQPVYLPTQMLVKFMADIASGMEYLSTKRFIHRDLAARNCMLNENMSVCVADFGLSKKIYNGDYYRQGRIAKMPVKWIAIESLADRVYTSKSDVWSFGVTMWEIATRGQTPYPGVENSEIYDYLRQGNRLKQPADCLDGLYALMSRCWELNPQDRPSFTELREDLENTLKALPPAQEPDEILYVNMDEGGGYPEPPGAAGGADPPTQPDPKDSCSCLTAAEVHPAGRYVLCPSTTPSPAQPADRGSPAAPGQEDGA
Vascular endothelial growth factor receptor 2 (Homo sapiens), sequence (P35968 whole entry): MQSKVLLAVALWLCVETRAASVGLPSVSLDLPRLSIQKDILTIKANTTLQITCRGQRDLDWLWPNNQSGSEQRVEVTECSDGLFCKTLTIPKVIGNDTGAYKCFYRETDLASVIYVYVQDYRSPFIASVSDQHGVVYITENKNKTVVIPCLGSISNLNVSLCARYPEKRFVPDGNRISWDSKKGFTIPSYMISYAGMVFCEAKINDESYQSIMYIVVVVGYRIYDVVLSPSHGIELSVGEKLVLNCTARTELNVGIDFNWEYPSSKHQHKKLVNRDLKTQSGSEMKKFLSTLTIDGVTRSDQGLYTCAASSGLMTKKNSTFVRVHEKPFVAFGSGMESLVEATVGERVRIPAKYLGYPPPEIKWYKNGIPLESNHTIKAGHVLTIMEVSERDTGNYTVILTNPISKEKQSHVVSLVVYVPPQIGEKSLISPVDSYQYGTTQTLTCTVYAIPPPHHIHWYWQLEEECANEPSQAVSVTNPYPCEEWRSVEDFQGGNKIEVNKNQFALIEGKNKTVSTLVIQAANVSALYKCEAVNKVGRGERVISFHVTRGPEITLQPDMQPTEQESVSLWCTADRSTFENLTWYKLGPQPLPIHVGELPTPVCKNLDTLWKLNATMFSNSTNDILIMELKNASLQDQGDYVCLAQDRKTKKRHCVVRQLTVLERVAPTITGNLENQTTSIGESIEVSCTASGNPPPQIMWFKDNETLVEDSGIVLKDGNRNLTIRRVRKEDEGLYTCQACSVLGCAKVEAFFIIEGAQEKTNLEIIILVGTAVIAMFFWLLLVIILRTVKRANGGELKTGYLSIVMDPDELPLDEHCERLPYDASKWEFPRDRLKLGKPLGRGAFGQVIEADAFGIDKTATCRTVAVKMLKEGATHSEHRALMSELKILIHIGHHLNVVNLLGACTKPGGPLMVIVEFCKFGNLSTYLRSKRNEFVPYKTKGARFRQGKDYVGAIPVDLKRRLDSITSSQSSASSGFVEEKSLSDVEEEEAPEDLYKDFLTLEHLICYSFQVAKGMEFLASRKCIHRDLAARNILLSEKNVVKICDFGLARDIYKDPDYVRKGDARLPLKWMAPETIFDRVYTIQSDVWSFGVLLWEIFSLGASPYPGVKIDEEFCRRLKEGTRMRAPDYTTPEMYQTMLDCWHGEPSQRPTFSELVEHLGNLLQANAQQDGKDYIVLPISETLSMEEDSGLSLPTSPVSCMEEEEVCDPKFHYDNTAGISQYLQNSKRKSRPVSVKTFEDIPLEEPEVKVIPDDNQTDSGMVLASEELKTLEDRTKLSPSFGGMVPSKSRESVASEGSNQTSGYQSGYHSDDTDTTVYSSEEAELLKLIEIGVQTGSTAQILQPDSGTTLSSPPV

Molecule O=C(Nc1nc2ccc(-c3cn([C@@H]4CN[C@H](C(=O)Nc5ccc(Cl)cc5Cl)C4)nn3)nc2s1)C1CC1 has an Activity (K562 [1]) of 4.85%, an inhibition [2] of 68.4% and a viability at 1 µM (K562 [3]) of 76.9%. The inhibition [4] was 47.7%, the Activity (HEK293) was “Non-Toxic” and the Activity (K562 [5]) was “Active”. For the same molecule, the Activity (EA.hy 926) was “Non-Toxic”, the inhibition [6] was 56.4% and the IC50 (Bcr/Abl fusion protein [7]) was 0.0006 µM. For the same molecule, the inhibition [8] was 68.4%, the Activity (K562 [9]) was 19.42% and the inhibition [10] was “Dde”. The IC50 (BaF3) was greater than 20 µM, the IC50 (Bcr/Abl fusion protein [11]) was 0.19 µM and the inhibition [12] was 41.1%. The inhibition [13] was “Dde” and the inhibition [14] was 44.2%.
